From patent US10576088B2, “Compositions comprising finafloxacin and Tris” (MerLion Pharmaceuticals Pte. Ltd., priority 2014, dated 2020)
Converted amounts (≈) assume the structure as drawn.

What was measured:
[1] = test system: E. coli ATCC 25922; assay: Mouse intraperitoneal infection model, bacterial burden; format: in vivo; details: mice, composition with 0.01 M Tris, doses 4 and 12 hours post infection, burden 24 hours post infection
Description: 4.2 Mice were infected with 3.9×10^5 E. coli ATCC 25922 suspended in 1% porcine mucin administered by a 0.5 ml intraperitoneal injection. Antibacterial treatment with a finafloxacin composition comprising 0.01 M Tris was initiated 4 hours post infection with a second dose 12 hours post infection. The bacterial burden in the peritoneal fluid and blood culture was determined 24 hours post infection. Finafloxacin was effective at all doses with 1 mg/kg causing a reduction in burden of 3.1 log 10 cfu/g, finafloxacin administered at 3, 10 and 30 mg/kg were increasingly effective causing reductions of 4.4, 5.0 and 6.5 log 10 cfu/g, respectively.

[2] = test system: pathogen in the urine; assay: Microbiological cure in patients with complicated urinary tract infections and pyelonephritis; format: in vivo, human; details: intravenous 800 mg once daily, composition with 0.01 M Tris, 17 days after start of treatment, cure = pathogen in urine ≤10^3 cfu/ml
Description: 4.3 Patients with complicated urinary tract infections and pyelonephritis were treated with an intravenous dose of 800 mg Finafloxacin once daily. 17 days after the start of the treatment the microbiological cure results were determined. Microbiological cure is defined as the reduction of the concentration of the pathogen in the urine to a titer of ≤10^3 cfu/ml. The finafloxacin composition comprising 0.01 M Tris caused an efficient eradication of the pathogens. The microbiological cure rate was 83%.

[3] = 2-week intravenous toxicological appraisal in rats; format: in vivo; details: 2 weeks, 60, 120 and 200 mg/kg/day, in 0.01 M Tris, 0.75% (w/v) sodium chloride, pH 8.5
From the text: The test article was formulated in 0.01 M Tris containing sodium chloride to 0.75% (w/v), adjusted in water for injection to pH 8.5.

[4] = Stability of finafloxacin composition comprising Tris (Example 3); format: physicochemical; details: solution of 3.20 g/l finafloxacin, 7.80 g/l NaCl, 1.21 g/l Tris, pH 8.25, water for injection
From the text: The following composition was used to test the stability: [table]

[5] = Solubility of finafloxacin HCl in Tris, phosphate and pH-adjusted WfI (Example 1); format: physicochemical
Description: The solubility of finafloxacin, in form of its mono-hydrochloride salt, was tested at pH values between 7.3 and 9.0, using the following solutions: 0.01 M Tris: Water for injection 800 ml, Tris 1.21 g, sodium chloride 7.5 g, water for injection ad 1000 ml; pH was adjusted with HCl/NaOH. 0.025 M Phosphate: Water for injection 800 ml, sodium dihydrogen phosphate 1.950 g, disodium hydrogen phosphate 2.225 g, sodium chloride 7.5 g, water for injection ad 1000 ml; pH was adjusted with HCl/NaOH. WfI: Water for injection 900 ml, sodium chloride 7.5 g, water for injection ad 1000 ml; pH was adjusted with HCl/NaOH.

[6] = test system: S. aureus 29213; assay: In vitro susceptibility test (MIC), finafloxacin composition with Tris; format: cell-based; details: Staphylococcus aureus, composition at pH 8.0 containing 0.05 M Tris, read-out: minimal inhibitory concentration (MIC)
Description: (§1) The efficacy of finafloxacin compositions including Tris between pH 8.0-8.5 was examined and determined as follows:
(§2) 4.1 Bacteria were incubated in a finafloxacin composition at pH 8.0 containing 0.05 M Tris and the minimal inhibitory concentration (MIC) of finafloxacin, defined as the minimal finafloxacin concentration that inhibited the growth of the bacterium, was determined using a standard in vitro susceptibility test.

[7] = test system: E. coli 25922; assay: as above; format: cell-based; details: Escherichia coli, composition at pH 8.0 containing 0.05 M Tris, read-out: minimal inhibitory concentration (MIC)
Description: as §1, §2

[8] = Solubility of finafloxacin HCl in different concentrations of Tris solutions (Example 2); format: physicochemical
Description: 0.25 M Tris: Water for injection 800 ml, Tris 30.3 g, sodium chloride 7.5 g, water for injection ad 1000 ml; pH was adjusted with HCl/NaOH. 0.17 M Tris: Water for injection 800 ml, Tris 20.0 g, sodium chloride 7.5 g, water for injection ad 1000 ml; pH was adjusted with HCl/NaOH. 0.08 M Tris: Water for injection 800 ml, Tris 10.0 g, sodium chloride 7.5 g, water for injection ad 1000 ml; pH was adjusted with HCl/NaOH. […] In contrast to example 1 the pH was not re-adjusted after the stepwise addition of finafloxacin.

Question: With N#Cc1c(N2C[C@@H]3NCCO[C@H]3C2)c(F)cc2c(=O)c(C(=O)O)cn(C3CC3)c12 [Finafloxacin, (−)-8-cyano-1-cyclopropyl-6-fluoro-7-[(4aS,7aS)-hexahydropyrrolo[3,4-b]-1,4-oxazin-6(2H)-yl]-4-oxo-1,4-dihydroquinoline-3-carboxylic acid] as the compound, how does the reduction in burden ([1]; 1 mg/kg) read?
Answer: The reduction in burden was 3.1 log 10 cfu/g.

Question: What about the reduction in burden ([1]; 3 mg/kg) of the same compound?
Answer: Its reduction in burden is 4.4 log 10 cfu/g.

Question: What about the reduction in burden ([1]; 10 mg/kg) of the same compound?
Answer: Its reduction in burden is 5.0 log 10 cfu/g.

Question: What about the reduction in burden ([1]; 30 mg/kg) of the same compound?
Answer: The reduction in burden was 6.5 log 10 cfu/g.

Question: And the microbiological cure rate [2]?
Answer: Its microbiological cure rate is 83%.

Question: What about the tolerability [3] of the same compound?
Answer: Its tolerability is “generally well tolerated”.

Question: And the long term stability [4]?
Answer: Its long term stability is “at least 24 months”.

Question: What about the increase in solubility ([5]; 0.01 M Tris versus WfI and phosphate buffer) of the same compound?
Answer: The increase in solubility was 3-4 fold.

Question: What about the MIC [6] of the same compound?
Answer: Its MIC is 0.5 µg/mL (≈ 1.26 µM).

Question: And the MIC [7]?
Answer: Its MIC is 0.25 µg/mL (≈ 0.628 µM).

Question: Which results are given for Cl.N#Cc1c(N2C[C@@H]3NCCO[C@H]3C2)c(F)cc2c(=O)c(C(=O)O)cn(C3CC3)c12 [Finafloxacin HCl]?
Answer: solubility ([8]; 0.08 M Tris, pH 7.8, pH not re-adjusted): 4000 µg/mL; solubility ([8]; 0.08 M Tris, pH 8.2, pH not re-adjusted): 6000 µg/mL; solubility ([8]; 0.08 M Tris, pH 8.6, pH not re-adjusted): 9000 µg/mL; solubility ([8]; 0.08 M Tris, pH 9.0, pH not re-adjusted): 10000 µg/mL; solubility ([8]; 0.17 M Tris, pH 7.4, pH not re-adjusted): 2000 µg/mL; solubility ([8]; 0.17 M Tris, pH 7.8, pH not re-adjusted): 6000 µg/mL; solubility ([8]; 0.17 M Tris, pH 8.2, pH not re-adjusted): 10000 µg/mL; solubility ([8]; 0.17 M Tris, pH 8.6, pH not re-adjusted): 19000 µg/mL; solubility ([8]; 0.17 M Tris, pH 9.0, pH not re-adjusted): 23000 µg/mL; solubility ([8]; 0.25 M Tris, pH 7.4, pH not re-adjusted): 2000 µg/mL; solubility ([8]; 0.25 M Tris, pH 7.8, pH not re-adjusted): 8000 µg/mL; solubility ([8]; 0.25 M Tris, pH 8.2, pH not re-adjusted): 15000 µg/mL; solubility ([8]; 0.25 M Tris, pH 8.6, pH not re-adjusted): 24000 µg/mL; solubility ([8]; 0.25 M Tris, pH 9.0, pH not re-adjusted): 28000 µg/mL; solubility ([5]; 0.01 M Tris, pH 7.5, pH re-adjusted): 6000 µg/mL; solubility ([5]; 0.01 M Tris, pH 8.0, pH re-adjusted): 15000 µg/mL; solubility ([5]; 0.01 M Tris, pH 8.5, pH re-adjusted): >28000 µg/mL; solubility ([5]; 0.01 M Tris, pH 9.0, pH re-adjusted): >28000 µg/mL; solubility ([5]; 0.025 M Phosphate, pH 7.5, pH re-adjusted): 2000 µg/mL; solubility ([5]; 0.025 M Phosphate, pH 8.0, pH re-adjusted): 4000 µg/mL; solubility ([5]; 0.025 M Phosphate, pH 8.5, pH re-adjusted): 6000 µg/mL; solubility ([5]; 0.025 M Phosphate, pH 9.0, pH re-adjusted): 8000 µg/mL; solubility ([5]; pH-adjusted WfI, pH 7.5): 2000 µg/mL; solubility ([5]; pH-adjusted WfI, pH 8.0): 4000 µg/mL; solubility ([5]; pH-adjusted WfI, pH 8.5): 6000 µg/mL; solubility ([5]; pH-adjusted WfI, pH 9.0): 6000 µg/mL
